The values that follow come from paper PMC4900566, “Pharmacokinetic-Pharmacodynamic Analysis on Inflammation Rat Model after Oral Administration of Huang Lian Jie Du Decoction” (PLoS ONE, 2016).

Where two headings read alike, the source gives them in different places.

The data set can be described thus: Pharmacokinetics of HLJDD components in rat plasma after oral administration of HLJDD (LC-QqQ-MS, non-compartmental). As to conditions: oral HLJDD extract; for AUC%Extrap / AUMClast / Cmax1 / Cmax2 / HLλz / Tmax1 / Tmax2 / AUC(0-inf) / AUC(0-t) / MRT last / CL/F / Vd/F / AUCinf / AUClast / MRTlast / Vz/F: crude material 3.5 g/kg, plasma, n = 6; for Vd/F: read-out: Vz/F; for mean AUClast, fold larger in the inflamed group than in the control group: inflamed vs normal rats. Format: in vivo, Sprague-Dawley rats. The protocol: The rats were acclimatized to the facilities for 5 days and screened via the continuous determination of the rectal temperature for two days. […] The control group G1 was injected with the same volume of physiological saline. The ethics committees of Cisco North Biotechnology Co., Ltd. (Beijing, China) and the China Academy of Chinese Medical Sciences (Beijing, China) approved the experimental protocol.
For the PK-PD analysis, cannulas were implanted in each rat’s jugular vein (n = 22). To study the hepatic first-pass effect (HFPE), the jugular vein and the pyloric vein of each rat (n = 5) were cannulated according to the method described by Hye J. Chung et al. with slight modifications. Instead of the portal vein, the pyloric vein was cannulated to minimize the interference of blood flow in the portal vein [41]. The surgery was performed under anesthesia (3% chloral hydrate solution, intraperitoneal injection; 3.5 mL/kg) 5 days prior to the experiment. Rats with jugular vein intubation surgery were divided into four groups: a control group with HLJDD (G1, n = 6), aninflammatory group with HLJDD (G2, n = 6), aninflammatory group with physiological saline (G3, n = 5) and another inflammatory group with HLJDD (G4, n = 5). G1 and G2 were used for the pharmacokinetic study, while G3 and G4 were used for the pharmacodynamic study. Rats with jugular and pyloric vein cannulation for HFPE analysis were assigned to another inflammatory group with HLJDD (G5, n = 5).
The prepared HLJDD-EP solution was administered to the rats (G1, G2, G4 and G5) at 2 mL/100g body weight (crude material content: 3.5 g/kg) by oral gavage, and the G3 group was given the same volume of physiological saline. […] The rectal temperature of rats in the G3 and G4 groups was immediately monitored after each collection of blood. […] Samples were collected in heparinized Eppendorf tubes and centrifuged at 3000 rpm for 15 min. The plasma was stored at -80°C until assay.
The supernatant was dried with nitrogen at 40°C. The residue was re-dissolved in 100 μL of methanol and centrifuged at 15000 rpm for 10 min.
Liquid chromatographic separations of the analytes were performed using a Thermo Scientific Hypersil GOLD column (50 mm× 2.1 mm, 1.9 μm). The mobile phase consisted of acetonitrile (solvent A) and 0.1% formic acid in water (solvent B). […] The flow rate was 0.3 mL/min. The injection volume was 2 μL. […] The optimized ESI source parameters were as follows: gas temperature, 200°C; gas flow, 14 L/min; nebulizer pressure, 20 psi; sheath gas temperature, 400°C; and sheath gas flow, 11 L/min. Analytes were quantitated by monitoring the precursor-product combination in the DMRM mode using ion polarity switching (flavonoids and alkaloids were determined in the positive mode, while iridoids were detected in the negative mode). To ensure the desired abundance of each compound, the CE values and other parameters were optimized and illustrated as follows: cycle time, 300 ms; positive capillary voltage, 3000 v; negative capillary voltage, 2000 v; positive nozzle voltage, 1500 v; negative nozzle voltage, 1000 v; Delta EMV(+), 200 v; Delta EMV(-), 200 v. The optimized mass transition ion pairs (m/z) for analytes and the detection of the conditions of the compounds are shown in S1 Table.
Pharmacokinetic parameters of the determined compounds were processed by the non-compartmental method using Phoenix Winnonlin software (Pharsight Corporation, USA). Linear trapezoidal integration was used to calculate areas under the concentration-time curves (AUC) and areas under the first moment curves (AUMC). The mean residence time (MRT) was determined as AUMC/AUC. The plasma half-life (HLλz), maximum plasma concentration (Cmax), the time to reach Cmax (Tmax) and other parameters following the administration of HLJDD were determined from the observed data. The HFPE was defined as HCR: HCR% = 100×(AUC0−t in the pyloric vein-AUC0−t in the jugular vein)/AUC0−t in the pyloric vein.

The mark [1] stands for this setting: male, Sprague-Dawley, rat, po, 3.5 g/kg, inflamed rats (group M).
Where [2] appears, read: male, Sprague-Dawley, rat, po, 3.5 g/kg, inflamed rats (group M), read-out: CL/F (converted).
[3] abbreviates: male, Sprague-Dawley, rat, po, 3.5 g/kg, normal rats (group B).

A word on the AUC(0-inf): it is the area under the concentration-time curve extrapolated to infinity. What is called AUC(0-t) is the area under the concentration-time curve up to a stated or last time point. The MRT last is the average time that molecules of a dose stay in the body. For the compound `COc1c(O)cc2oc(-c3ccccc3)cc(=O)c2c1O` [oroxylin A], under “inflamed rats (group M)”, the AUC%Extrap came out at 13.4±8.6%, the AUMClast is recorded as 365.4±192.9 h*h*ng/ml, the Cmax1 was 2.5 ± 1.1 ng/mL and the Cmax2 amounted to 2.3 ± 0.8 ng/mL. Also, for the setting “inflamed rats (group M)”, the HLλz was found to be 16.3 ± 8.8 h, the Tmax1 came to 0.08 ± 0.0 h and the Tmax2 was found to be 7.0 ± 3.0 h. Moreover, under setting [1], the AUC(0-inf) stood at 24.6 ± 6.1 ng·h/mL, the exposure AUC(0-t) stood at 21.1 ± 4.1 ng·h/mL, the mean residence time MRT last amounted to 16.5 ± 6.2 h and the Vd/F was 2820 ± 507 L/kg. Further, under setting [2], the CL/F was 1790 mL/min/kg. Further, under setting [3], the AUC(0-inf) stood at 2.4 ± 0.5 ng·h/mL, the area under the curve AUC(0-t) came to 2.3 ± 0.5 ng·h/mL, the mean residence time MRT last was 3 ± 0.6 h and the Vd/F was 2500 ± 1080 L/kg. For the same compound, for the setting “normal rats (group B)”, the AUC%Extrap was 5.3±3.4%, the AUMClast turned out to be 7.1±2.7 h*h*ng/ml, the Cmax1 was found to be 1.5 ± 0.6 ng/mL and the Cmax2 worked out at 0.4 ± 0.1 ng/mL. Where the note is “normal rats (group B)”, the HLλz was 1.7 ± 0.9 h, the Tmax1 was determined as 0.08 ± 0.0 h and the Tmax2 came to 4.0 ± 0.0 h.

For `O=C(O)[C@H]1O[C@@H](Oc2cc3oc(-c4ccccc4)cc(=O)c3c(O)c2O)[C@H](O)[C@@H](O)[C@@H]1O` [baicalin], the “mean AUClast, fold larger in the inflamed group than in the control group” value (shortened to “mean AUClast, fold larger”) is on record as 2.0 fold. Under “inflamed rats (group M)”, the AUC%Extrap stood at 2.7±0.5%, the AUMClast was 175077.1±103375.1 h*h*ng/ml, the Cmax1 was determined as 2420.9 ± 922.5 ng/mL and the Cmax2 was 1000.4 ± 298.1 ng/mL. For the setting “inflamed rats (group M)”, the HLλz was 4.7 ± 1.1 h, the Tmax1 turned out to be 0.1 ± 0.04 h and the Tmax2 was determined as 9.3 ± 2.1 h. Further, under setting [1], the AUC(0-inf) came out at 16800 ± 9090 ng·h/mL, the AUC(0-t) came to 15700 ± 9300 ng·h/mL, the mean residence time MRT last came to 10.1 ± 2.3 h and the Vd/F worked out at 58.8 ± 25.2 L/kg. The CL/F under setting [2] was 145 mL/min/kg. Further, under setting [3], the total exposure AUC(0-inf) is 8130 ± 906 ng·h/mL, the AUC(0-t) worked out at 7880 ± 775 ng·h/mL, the mean residence time (MRT last) came to 4.3 ± 0.3 h and the Vd/F was 39.6 ± 7.1 L/kg. The CL/F (male, Sprague-Dawley, rat, po, 3.5 g/kg, normal rats (group B), read-out: CL/F (converted)) was 258 mL/min/kg. Under “normal rats (group B)”, the AUC%Extrap turned out to be 2.9±2.3%, the AUMClast is recorded as 34124.1±4967.9 h*h*ng/ml, the Cmax1 came to 1828.8 ± 737.4 ng/mL and the Cmax2 was determined as 1580.1 ± 202.4 ng/mL. Moreover, for the setting “normal rats (group B)”, the HLλz was found to be 1.8 ± 0.4 h, the Tmax1 was 0.09 ± 0.03 h and the Tmax2 worked out at 4.3 ± 0.8 h.

For the compound `COc1ccc2c(c1O)-c1c(O)c(OC)cc3c1[C@H](C2)[N+](C)(C)CC3` [magnolflorine], the “mean AUClast, fold larger” value is given as 1.6 fold. Also, under “inflamed rats (group M)”, the AUC%Extrap was 17.6±8.0%, the AUCinf was found to be 29.3 ± 13.8 ng·h/mL, the AUClast was determined as 24.9 ± 14.6 ng·h/mL and the AUMClast is 97.9±55.4 h*h*ng/ml. Also, under “inflamed rats (group M)”, the Cmax1 is 6.0 ± 1.7 ng/mL, the HLλz amounted to 4.3 ± 2.2 h, the MRTlast turned out to be 4.1 ± 1.9 h and the Tmax1 came to 0.6 ± 0.3 h. Also, the Vz/F (inflamed rats (group M)) was 607.8 ± 396.5 L/kg. Also, under “normal rats (group B)”, the AUC%Extrap is on record as 6.2±2.4%, the AUCinf stood at 17.0 ± 2.0 ng·h/mL, the AUClast is 16.0 ± 2.0 ng·h/mL and the AUMClast was 29.5±5.8 h*h*ng/ml. For the setting “normal rats (group B)”, the CL/F was found to be 2377 ± 265 mL/min/kg, the Cmax1 came out at 6.5 ± 1.1 ng/mL, the HLλz is 1.6 ± 0.4 h and the MRTlast worked out at 1.8 ± 0.1 h. Also, for the setting “normal rats (group B)”, the Tmax1 turned out to be 0.6 ± 0.2 h and the Vz/F came out at 339.5 ± 97.3 L/kg.

Turning to `COc1c(O[C@@H]2O[C@H](C(=O)O)[C@@H](O)[C@H](O)[C@H]2O)cc(O)c2c(=O)cc(-c3ccccc3)oc12` [wogonoside], where the note is “inflamed rats (group M)”, the AUC%Extrap was determined as 17.3±13.8%, the AUCinf was found to be 8380.9 ± 1944.5 ng·h/mL, the AUClast worked out at 6870.4 ± 1786.5 ng·h/mL and the AUMClast was found to be 92756.1±44786.8 h*h*ng/ml. In addition, where the note is “inflamed rats (group M)”, the CL/F turned out to be 190 ± 45 mL/min/kg, the Cmax1 came to 571.9 ± 183.4 ng/mL, the Cmax2 worked out at 323.9 ± 52.5 ng/mL and the HLλz was 12.2 ± 5.9 h. Moreover, where the note is “inflamed rats (group M)”, the MRTlast came to 12.9 ± 3.0 h, the Tmax1 stood at 0.16 ± 0.08 h, the Tmax2 came to 8.7 ± 3.0 h and the Vz/F is 188.6 ± 72.3 L/kg. Also, where the note is “normal rats (group B)”, the AUC%Extrap is 9.6±6.6%, the AUCinf was 3615.4 ± 872.3 ng·h/mL, the AUClast was determined as 3302.3 ± 975.1 ng·h/mL and the AUMClast came to 15357.0±3545.6 h*h*ng/ml. Further, under “normal rats (group B)”, the CL/F was 442 ± 117 mL/min/kg, the Cmax1 turned out to be 492.9 ± 152.9 ng/mL, the Cmax2 was 517.7 ± 173.8 ng/mL and the HLλz was determined as 3.0 ± 1.0 h. Where the note is “normal rats (group B)”, the MRTlast worked out at 4.7 ± 0.5 h, the Tmax1 was 0.11 ± 0.04 h, the Tmax2 stood at 4.3 ± 0.8 h and the Vz/F turned out to be 118.7 ± 58.0 L/kg.

Take `COc1ccc2cc3[n+](cc2c1OC)CCc1cc2c(cc1-3)OCO2` [berberine]: the “mean AUClast, fold larger” value was 2.1 fold. Moreover, where the note is “inflamed rats (group M)”, the AUC%Extrap is 10.7±7.0%, the AUMClast is listed as 22.6±8.6 h*h*ng/ml, the Cmax1 came to 0.5 ± 0.2 ng/mL and the Cmax2 stood at 0.3 ± 0.3 ng/mL. For the same compound, where the note is “inflamed rats (group M)”, the HLλz is 9.1 ± 2.5 h, the Tmax1 was 1.0 ± 0.6 h and the Tmax2 was found to be 10.8 ± 2.7 h. For the same compound, under setting [1], the AUC(0-inf) worked out at 3.4 ± 0.7 ng·h/mL, the AUC(0-t) was determined as 2.7 ± 0.8 ng·h/mL and the MRT last amounted to 8.4 ± 3.1 h. Also, under setting [3], the AUC(0-inf) is 1.8 ± 0.6 ng·h/mL, the exposure AUC(0-t) worked out at 1.3 ± 0.5 ng·h/mL and the mean residence time (MRT last) was 5.7 ± 3.5 h. Besides, for the setting “normal rats (group B)”, the AUC%Extrap was 25.9±15.5%, the AUMClast was 8.9±8.6 h*h*ng/ml, the Cmax1 is 0.4 ± 0.1 ng/mL and the Cmax2 amounted to 0.1 ± 0.03 ng/mL. Also, under “normal rats (group B)”, the HLλz is 6.3 ± 3.5 h, the Tmax1 was 0.6 ± 0.4 h and the Tmax2 worked out at 8.0 ± 2.2 h.
